# From patent US20130071853A1, “METHODS FOR IDENTIFYING COMPOSITIONS THAT ALTER WILDTYPE EXPRESSION OF GENES AND PROTEINS IN A PLANT CELL” (Dow Agrosciences LLC, priority 2010, published 2013)
# Columns and labels:
# [1] = tested on: maize transcripts (corn genes on the microarray); test: Agilent single-color global gene expression profiling of corn leaf tissue 2 h after spray treatment; type: in vivo, Zea maize (corn); conditions: for Regulation: Table 1: corn genes, 1-MCP alone, direction of change per probe/gene
# Description: Hybrid corn seed (one plant per pot) was planted in 1 quart pots filled with FAFARD 3B™ potting mix (Conrad Fafard, Inc., Agawam, Mass.). Corn was grown in a greenhouse with a 12 hr light cycle and watered every 24 hours or as needed to maintain stress free conditions. When the corn plants reached the V10 growth stage, the pots were arranged into a randomized complete block design with 4 plants with 3 replications per treatment. Corn plants were treated using a standard CO2 sprayer with 20 gal/acre carrier volume.
# Treatments were: • Control: Oil/Adjuvant check using 0.035% v/v the organosilicone surfactant SILWET L-77 (Helena Chemical Co., Collierville, Tenn.) • Compound 1: A17492F (MCP) 25 g active ingredient/hectare (ai/ha)+0.035% SILWET surfactant • Compound 2: COMPASS fungicide 1x+0.035% SILWET surfactant • Combination (1 and 2): 1 MCP 25 g/ha+COMPASS fungicide 1x
# (§1) Two hours after the spray application, upper leaves that had received the spray were sampled. For each plant, five, 2 inch pieces of leaves were taken, cut into small pieces and combined into a 50 ml polypropylene tube. Samples were immediately frozen on dry ice and sent on dry ice overnight to the laboratory for processing.
# A single-color Agilent global gene expression profiling design was used to define differentially expressed genes for treated in reference to untreated maize leaf tissues. Three technical array replicates (Agilent Technologies Inc., Santa Clara, Calif.) were hybridized to compare different transcript abundance between leaf tissues treated with the COMPASS fungicide and/or 1-MCP in reference to untreated leaf tissues.
# A Dow AgroSciences custom generated 60-mer comprehensive transcriptome-wide Zea maize oligonucleotide array was used to carry out microarray hybridizations. This array represents more than 58,000 different maize transcripts (Agilent Technologies Inc., Santa Clara, Calif.) obtained from public data sources. Microarray chips were printed using an Agilent format 2×105K, including 10 copies of 100 probes, 2 copies of 44,196 probes 1 copy of 14,355 probes in addition to 1,325 Agilent spike-in controls. The 60-mer unique and specific oligonucleotides were synthesized in-situ using the Sure-Print technology from the manufacturer.
# (§2) Samples of 30-50 mg of frozen leaf tissues were resuspended in 450 μL of extraction buffer RLT from the RNeasy™ Kit for RNA extraction (Qiagen, Valencia, Calif.). Tissues were then ground to a fine powder by adding one 3 mm grinding bead to each frozen sample and grinding for 3 minutes using a GenoGrinder instrument at a rate of 300, 1×. Total RNA was purified following the manufacturer's instructions. Purified total RNA was then quantified and quality controlled using a NanoDrop™ spectrophotometer and visualized by standard 1% Agarose gel electrophoresis.
# For labeling, a total of 1.0 μg of purified RNA from treated and untreated tissues was reverse transcribed, amplified and labeled with Cy3-CTP following the Agilent (Santa Clara, Calif.) one-color microarray-based gene expression QuickAmp™ labeling protocol. Since Dow AgroSciences-generated Zea maize AGILENT™ microarrays for gene expression (P/N G4503A, Design ID 022232) contain internal spike-in controls a one-color RNA spike-in kit (Agilent, Santa Clara, Calif.) was also labeled according to manufacturer's instructions. Samples were reverse transcribed using MMLV Reverse Transcriptase and amplified using a T7 RNA Polymerase. After amplification cRNA was purified using Qiagen's RNeasy mini spin columns and quantified using a NanoDrop spectrophotometer. Specific activity for Cy3 was determined by the following formula: […]
# Oligo gene expression arrays were hybridized using the Agilent Technologies (Santa Clara, Calif.) Gene Expression Hybridization kit, Wash Buffer kit, Stabilization and Drying Solution following the manufacturer's instructions. Hybridizations were carried out on a fully automated TECAN HS4800 PRO™ (TECAN U.S., Research Triangle Park, N.C.). […]
# [2] = tested on: Arabidopsis genes on the microarray; test: Agilent single-color global gene expression profiling of Arabidopsis leaf tissue 2 h after spray treatment; type: in vivo, Arabidopsis thaliana (variety Columbia); conditions: for Regulation^a: direction per probe/gene
# Description: Thirteen Arabidopsis seeds (variety Columbia) were planted in 6 inch pots filled with sandy clay medium. After emergence, pots were thinned to 10 plants per pot. Plants were grown in a greenhouse with a 12 hr light cycle and watered every 24 hours or as needed to maintain stress free conditions. When the Arabidopsis plants reached the vegetative (>BBCH 11<BBCH 30) stage (approx. 2-3 wks from planting), the pots were arranged into a randomized complete block design with 10 plants with 3 replications per treatment. The plants were treated using a standard CO2 sprayer with 20 gal/A carrier volume.
# Control: Oil/Adjuvant check (0.035% v/v SILWET adjuvant L-77)
# Compound 1: A17492F (MCP) 25 g ai /ha+0.035% SILWET adjuvant
# Compound 2: COMPASS fungicide 1x+0.035% SILWET adjuvant
# Combination: 1 MCP 25 g/ha+COMPASS fungicide 1x
# as §1, with “application,” for “application, upper”, “treatment, two” for “plant, five, 2 inch pieces of”, “taken from each of the 10 plants” for “taken, cut into small pieces”
# A single-color Agilent global gene expression profiling design was used to define differentially expressed genes for treated in reference to untreated Arabidopsis leaf tissues. Three technical array replicates (Agilent Technologies Inc., Santa Clara, Calif.) were hybridized to compare different transcript abundance between leaf tissues treated with Strobilurin and/or 1-MCP in reference to untreated leaf tissues. Arabidopsis slides, Product #G2519F, Design ID 021169 were obtained from Agilent Technologies.
# as §2, with “RNeasy” for “RNeasy™”, “GenoGrinder” for “GenoGrinder instrument”, “NanoDrop” for “NanoDrop™”
# For labeling, a total of 1.0 μg of purified RNA from treated and untreated tissues was reverse transcribed, amplified and labeled with Cy3-CTP following the Agilent (Santa Clara, Calif.) one-color microarray-based gene expression QuickAmp labeling protocol. Since Agilent Arabidopsis microarrays for gene expression (Product #G2519F, Design ID 021169) contain internal spike-in controls a one-color RNA spike-in kit (Agilent, Santa Clara, Calif.) was also labeled according to manufacturer's instructions. Samples were reverse transcribed using MMLV Reverse Transcriptase and amplified using a T7 RNA Polymerase. After amplification cRNA was purified using Qiagen's RNeasy mini spin columns and quantified using a NanoDrop spectrophotometer. Specific activity for Cy3 was determined by the following formula: (Concentration of Cy3)/(Concentration of cRNA)*1000=pmol of Cy3 per μg of cRNA. Samples for hybridization were normalized to 825 ng with a specific activity of >8.0 pmol of Cy3 per μg of cRNA.
# Oligo gene expression arrays were hybridized using the Agilent Technologies (Santa Clara, Calif.) Gene Expression Hybridization kit, Wash Buffer kit, Stabilization and Drying Solution following the manufacturer's instructions. Hybridizations were carried out on a fully automated TECAN HS4800 PRO (TECAN U.S., Research Triangle Park, N.C.) hybridization instrument. The hybridization mixture was injected at 65° C. and incubated with agitation for 17 hrs after following a slide pre-hybridization step at 65° C. for 30 seconds. Slides were then washed at 37° C. for 1 minute using the Agilent GE Wash #1 followed by a second wash at 30° C. with Agilent GE Wash #2 for 1 minute and a final drying step using Nitrogen gas for 2 minutes and 30 seconds at 30° C. […]
# [3] = corn leaves, 2 h after spray, ≧2 fold change
# [4] = Arabidopsis leaves, 2 h after spray, ≧5 fold change
compound,measurement,setting,value
"CC1=CC1 [Compound 1-MCP, 1-methylcyclopropene]",Regulation,[1]; probe ZmOL3000012,up
same,Regulation,[1]; probe ZmOL3007441,down
same,Regulation,[1]; probe ZmOL3020067,Down
same,Regulation,[1]; probe ZmOL3050321_2,Up
same,expression of carbonic anhydrase,[1]; corn,decreased
same,overall effect of treatment on gene expression,[1]; corn,reduction in stress-related gene expression
same,genes differentially expressed on the microarray vs untreated,[1]; [3],934 genes
same,subset of genes changed uniquely in response to this treatment,[1]; [3],362 genes
same,genes involved in translation whose expression changed that were induced,"[1]; corn, genes unique to the treatment",9 out of 10
same,overall effect of treatment on gene expression,[2]; Arabidopsis,reduction in stress-related gene expression
same,genes differentially expressed on the microarray vs untreated,[2]; [4],411 genes
same,subset of genes changed uniquely in response to this treatment,[2]; [4],202 genes
same,common genes following treatment with either 1-MCP or COMPASS alone,"[2]; Arabidopsis, ≧5 fold change",165 genes
same,Regulation^a,"[2]; Table 3: Arabidopsis genes, 1-MCP alone, probe A_84_P20410",up
same,Regulation^a,"[2]; Table 3: Arabidopsis genes, 1-MCP alone, probe A_84_P786760",down
same,Regulation^a,"[2]; Table 5: common genes, first column pair (a), probe A_84_P13916",down
same,Regulation^a,"[2]; Table 5: common genes, first column pair (a), probe A_84_P507728",up
